Data as given in US20210047262A1, “2-(3,4-DIHYDROXYPHENYL)ETHYL 3-HYDROXYBUTANOATE, COMPOSITION, AND METHOD FOR IMPROVING FUNCTION OF AORTIC ENDOTHELIAL CELL” (XI'AN JIAOTONG UNIVERSITY, priority 2019, published 2021).

Legend:
[1] = system: Human aortic endothelial cells (HAECs); test: MTT assay, cell viability of HAECs; assay type: cell-based; settings: FIG. 1
Procedure: (§1) Human aortic endothelial cells (HAECs) were purchased from Shanghai Shanghai Bioleaf Biotech Co., Ltd. Palmitic acid (PA) was purchased from SIGMA Company. A palmitic acid solution having a concentration of 500 μM was prepared by dissolving palmitic acid in water. A cell culture incubator was adopted to culture the cells in a temperature-constant, humidified, sterile condition. The cells were cultured in wells of culture plates at an atmosphere of 95% air and 5% CO2 at 37° C. in the incubator. The experiments were performed on different experimental groups of cells.
The HAECs that were previously cultured in a 12-well cell culture plates were divided into 6 different experimental groups and respectively applied with HT-HB in different concentrations, 0 μM, 1 μM, 10 μM, 50 μM, 100 μM, and 200 μM, all followed with an 24-hour incubation. Then, each of the 6 groups of cells was further divided into two sub groups, one was applied with 500 µM palmitic acid, the other was not, all followed with another 24-hour incubation.
An MTT assay was performed to all groups of cells. […] The absorbance was measured at a wavelength of 490 nm in a spectrophotometer. The absorbance of this colored solution can be quantified by measuring at a certain wavelength (usually between 500 and 600 nm) by a spectrophotometer.

interleukin-6 (IL-6) = test: IL-6 mRNA level detection (RT-PCR) in HAECs; assay type: cell-based, human; settings: FIG. 2
Procedure: as §1
The HAECs that were previously cultured in a 12-well cell culture plate were divided into 4 different experimental groups and respectively applied with HT-HB in different concentrations, 0 μM, 0 μM, 50 μM, 100 μM, all followed with an 24-hour incubation. Then, the last 3 groups of cells were respectively applied with 500 μM palmitic acid, the first was not, all followed with another 24-hour incubation. The detecting of mRNA levels corresponding to interleukin-6 (IL-6) was respectively carried out on each group of cells by using reverse transcription RNA and real-time quantitative polymerase chain reaction (PCR), and the specific method is as follows:
The medium for cell culture in the wells was removed. […] The concentration of the solution was measured by an ultraviolet spectrophotometer. […]

mitochondrial complex I = test: Protein detection by Western blot in HAECs, mitochondrial complex I; assay type: cell-based, human; settings: FIG. 3A, 3B
Procedure: as §1
The HAECs that were previously cultured in a 6-well cell culture plate were divided into 3 different experimental groups, the control (Ctrl) group, the PA group, and the HT-HB+PA group. The cells of the HT-HB+PA group were applied with HT-HB in a concentration of 100 µM followed with an 24-hour incubation. […]
The medium for cell culture in the wells was removed. […] The supernatants were collected, and the proteins therein were quantified by bicinchoninic acid (BCA) assay, and normalized. […]
10 μg of the extracted proteins were subjected to gel electrophoresis with 10% acrylamide gel, and electrophoretic transferred onto a PVDF membrane, which were blocked, and incubated with a primary antibody at 4° C. overnight, free primary antibody was washed away. […] Target proteins were detected by chemiluminescence.

mitochondrial complex II = test: Protein detection by Western blot in HAECs, mitochondrial complex II; assay type: cell-based, human; settings: 500 μM palmitic acid 24 h, vs control, FIG. 3A, 3B
Procedure: Human aortic endothelial cells (HAECs) were purchased from Shanghai Shanghai Bioleaf Biotech Co., Ltd. Palmitic acid (PA) was purchased from SIGMA Company. A palmitic acid solution having a concentration of 500 μM was prepared by dissolving palmitic acid in water. A cell culture incubator was adopted to culture the cells in a temperature-constant, humidified, sterile condition. The cells were cultured in wells of culture plates at an atmosphere of 95% air and 5% CO2 at 37° C. in the incubator. The experiments were performed on different experimental groups of cells. The HAECs that were previously cultured in a 6-well cell culture plate were divided into 3 different experimental groups, the control (Ctrl) group, the PA group, and the HT-HB+PA group. The cells of the HT-HB+PA group were applied with HT-HB in a concentration of 100 µM followed with an 24-hour incubation. Then, the cells of both the PA group and the HT-HB+PA group were applied with 500 μM palmitic acid, all followed with another 24-hour incubation. The protein detection was respectively carried out on each group of cells as follows. The medium for cell culture in the wells was removed. […] The supernatants were collected, and the proteins therein were quantified by bicinchoninic acid (BCA) assay, and normalized. […] Target proteins were detected by chemiluminescence.

CC(O)CC(=O)OCCc1ccc(O)c(O)c1 (stereo not shown) [HT-HB, 2-(3,4-dihydroxyphenyl)ethyl 3-hydroxybutanoate]
relative cell viability ([1]; HAECs not treated with palmitic acid, HT-HB 1 μM to 100 μM, vs cells without HT-HB (control)): higher viabilities | relative cell viability ([1]; HAECs pretreated with HT-HB 1 μM to 100 μM for 24 h, then 500 µM palmitic acid 24 h, vs palmitic acid treated cells without HT-HB): higher viabilities | mRNA level corresponding to IL-6 (interleukin-6 (IL-6); HAECs pretreated with HT-HB 100 M for 24 h, then 500 μM palmitic acid 24 h): significantly decreased | relative protein expression level of mitochondrial complex I (mitochondrial complex I; HT-HB 100 M 24 h, then 500 μM palmitic acid 24 h, vs PA group): significantly increasing the expression

CCCCCCCCCCCCCCCC(=O)O [palmitic acid, reference compound]
increase of mRNA level corresponding to IL-6 (interleukin-6 (IL-6); HAECs, 500 μM palmitic acid 24 h, vs control group): about 10 times | relative protein expression level of mitochondrial complex I (mitochondrial complex I; 500 μM palmitic acid 24 h, vs control): reducing the expression | relative protein expression level of mitochondrial complex II (mitochondrial complex II): reducing the expression
